{"source": "patent US7807369B2", "about": "“Methods and means for the treatment of HPV induced intraepithelial neoplasia” (Leiden University Medical Center, priority 2005, dated 2010)", "key": {"high-grade VIN": {"tested_on": "high-grade VIN", "assay": "Clinical response of high-grade VIN lesions to 5% imiquimod cream", "type": "in vivo, human", "from_the_text": "Twenty-nine women with high-grade VIN (age range, 24-73 years; median age, 47 years) were recruited from the departments of gynecology of the Academic Medical Center, and Leiden and Erasmus University Medical Center, The Netherlands. On the average, these patients had been diagnosed with VIN3 5,4 years before enrollment in the study (range, 6 months-15 years). Eighteen women had undergone previous treatments for VIN3 (surgical excision, laser therapy or imiquimod treatment (#21, 24, 27)) before study entry.\n(§1) Seventeen of these 29 subjects (age 29-60 years, median 43 years) were experimentally treated with a 5% imiquimod cream. The patients were asked to apply the cream to the affected areas on the vulva twice weekly overnight for a maximum period of 16 weeks. In order to analyze the effect of imiquimod treatment on the HPV16-specific immune response, we collected serial blood and serum samples before the start of imiquimod treatment (T=0), after 8 weeks of treatment (T=8), and at the end of treatment (T=16). Vulvar lesions were assessed by direct measurement and photographic records at entry, and after 8 and 16 weeks of treatment. Clinical responses were defined as a complete response (CR), a partial response type1 (PR1), as defined by a reduction in lesion diameter from 76-99%, a partial response type2 (PR2), as defined by a reduction in lesion diameter from 26-75%, or no clinical response.\nStatistical analysis of the HPV16-specific proliferative responses associated with cytokine production was performed using Fisher's exact test. Fisher's Exact test (2-tailed) was used to analyze HPV-specific immunity to clinical response upon treatment with imiquimod. Statistical analyzes were performed using Graphpad Instat Software (version 3.0)."}, "[1]": {"tested_on": "HPV16 VLP-specific IgG and IgA", "assay": "HPV16 VLP ELISA of serum over time in imiquimod-treated patients", "type": "in vivo, human", "details": "serum at week 0, 8 and 16; 17 VIN3 patients", "experimental": "IgG and IgA reactivity to HPV16 VLPs over time in 17 VIN3 patients treated with imiquimod. At least two serum specimens were tested in every patient. Serological responses are shown at week 0 (before imiquimod treatment), week 8 (during imiquimod treatment) and at week 16 (after imiquimod treatment). The OD values are depicted as median ±SD of positive responses. The OD values were calculated by subtraction of the background response value and the mean OD value of the young children's sera.\nas §1, with “response. […]” for “response.”"}, "VIN": {"tested_on": "VIN", "details": "topical treatment of VIN; estimate from refs 17-21; cited from earlier work"}, "[2]": {"tested_on": "HPV16-specific IFNγ-producing T-cells", "assay": "HPV16-specific T-cell reactivity by IFNγ ELISPOT before, during and after imiquimod treatment", "type": "in vivo, human", "details": "PBMC at week 0, 8 and 16", "from_the_text": "as §1, with “Clinical responses were defined as a complete response (CR), a partial response type1 (PR1), as defined by a reduction in lesion diameter from 76-99%, a partial response type2 (PR2), as defined by a reduction in lesion diameter from 26-75%, or no clinical response.” left out\nThe number of IFNγ producing HPV-specific T-cells, present in the peripheral blood of the 17 patients treated with imiquimod, was quantified using ELISPOT that was performed as described previously (29; 30). […] Spots were counted with a fully automated computer-assisted-video-imaging analysis system (Bio Sys). Specific spots were calculated by subtracting the mean number of spots+2×SD of the medium control from the mean number of spots in experimental wells provided that the mean number of spots of the medium control wells were either <10 or >10 with a standard deviation <20% of the mean. […]"}, "[3]": {"details": "of 17 women treated, 5% cream, max 16 weeks"}}}
{"smiles": "CC(C)Cn1cnc2c(N)nc3ccccc3c21", "note": "[imiquimod, 1-(2-methylpropyl)-1H-imidazo[4,5-c]quinolin-4-amine]", "values": [{"measurement": "women with overt clinical response (CR or PR1, 76-100% reduction in lesion size)", "setting": "high-grade VIN; 13 of 17 women with high-grade VIN, 5% cream twice weekly, max 16 weeks", "result": 76, "unit": "%"}, {"measurement": "likelihood of CR or PR1 in patients without an HPV-specific immune response", "setting": "high-grade VIN; HPV16+ patients (n=15), versus those with a response, p=0.03, 2-sided Fisher's exact test", "result": "less likely to show such a clinical improvement"}, {"measurement": "patients with no reduction in size of the affected area of vulvar disease", "setting": "high-grade VIN; [3]", "result": "Three"}, {"measurement": "patients with only minimal improvement upon treatment", "setting": "high-grade VIN; [3]", "result": "one"}, {"measurement": "patients with complete or near complete clinical response (CR or PR1)", "setting": "high-grade VIN; the 8 HPV16+ patients with an HPV-specific Th1 immune response (of n=15 HPV16+)", "result": 8, "unit": "patients"}, {"measurement": "change of HPV16 VLP-specific IgG and IgA response", "setting": "[1]", "result": "did not overly change"}, {"measurement": "clinical success rates", "setting": "VIN", "result": "30-87%"}, {"measurement": "effect on numbers of HPV16-specific T-cells", "setting": "[2]", "result": "In none of the patients a clear-cut increase of HPV16-specific T-cells was detected"}]}
